Measurements: US5550139A, “Serine protease inhibitors” (The Wichita State University, priority 1994, dated 1996)
Several values for one entry are separate records, joined by “and”; a condition that tells them apart may be missing. Identical values can stand only once.

Assays:
[1] = tested on: peripheral blood neutrophils and lymphocytes; assay: Peripheral blood cell distribution after administration to rats without inflammation; assay type: in vivo; settings: rat, 8 mg/kg twice daily for three days; for Peripheral Blood Cell Distribution, Lymphocytes / Peripheral Blood Cell Distribution, Neutrophils / effect on number of neutrophils in peripheral circulation (in words): no inflammation; for Peripheral Blood Cell Distribution, Lymphocytes / Peripheral Blood Cell Distribution, Neutrophils: per animal, 8 mg/kg; for effect on number of neutrophils in peripheral circulation (in words): vs vehicle
Description: Compound A or Compound B were each administered twice daily for three days at a dose of 8 mg/kg. Inflammation was not induced in these rats. […] However, substitution of the aspirin moiety with a fluorine atom, as found in Compound B, prevents an increase in neutrophil cell number.

neutrophil elastase = assay: Elastase activity and cell number in peripheral blood neutrophils after administration to rats; assay type: in vivo; settings: rat, 8 mg/kg twice daily i.v. for three days; for Elastase Activity / Elastase Activity Rate/10^6 PMN: peripheral blood neutrophils; for Elastase Activity / Elastase Activity Rate/10^6 PMN / PMN / Total WBC: per animal, 8 mg/kg; for effect on elastase activity in circulating neutrophils (in words): vs vehicle
Description: (§1) Inhibitor A or B were each injected twice daily into the tail vein of a rat (8 mg/kg) over a period of three days. Inflammation was not induced in these rats. […] WBC=white blood cells; PMN=polymorphonuclear leukocytes; The elastase assay has been disclosed above.

rat = assay: Overt toxicity in injected rats; assay type: in vivo; settings: rat, 8 mg/kg twice daily i.v. for three days
Description: as §1
(§2) Each compound (A-D) was individually injected into the tail vein of a rat in a single dose (8 mg/kg). After injection, peritonitis was induced in the rat by an IP (intraperitoneal) injection of 1 ml of a 0.1% soluble starch solution. After 4 hours, the peritoneal cavity was lavaged with saline in order to determine the number and type of cells responding to peritonitis. Cell numbers were determined by a Coulter counter and cell type (e.g. lymphocytes, neutrophils, macrophages and monocytes) by standard Cytospin and Giemsa staining. Cell number and type was evaluated after IP injection of saline (negative control, no inflammation), starch (positive control, inflammation) or starch with IV injection of an inhibitor (experimental, inflammation). Inhibitors were dissolved in DMSO prior to administration.

[2] = tested on: neutrophil diapedesis (peritonitis); assay: Inhibition of neutrophil diapedesis after experimentally induced (starch) peritonitis; assay type: in vivo, rat; settings: for Abdominal Lavage Cell Distribution, Lymphocytes / Abdominal Lavage Cell Distribution, Macrophages Monocytes / Abdominal Lavage Cell Distribution, Neutrophils: 4 hours; for reduction of peritonitis induced neutrophil diapedesis: rat
Description: as §2

[3] = Experiment 1, starch, 8 mg/kg i.v. single dose
[4] = Experiment 2, saline (no inflammation) + drug
[5] = Experiment 2, starch, 8 mg/kg i.v. single dose

Row | SMILES | Peripheral Blood Cell Distribution, Lymphocytes [1] | Peripheral Blood Cell Distribution, Neutrophils [1] | effect on number of neutrophils in peripheral circulation (in words) [1] | Elastase Activity (neutrophil elastase) | Elastase Activity Rate/10^6 PMN (neutrophil elastase) | entry into neutrophils in vivo (in words) (neutrophil elastase) | inactivation of neutrophil intracellular proteinase (in words) (neutrophil elastase) | PMN (neutrophil elastase) | Total WBC (neutrophil elastase) | effect on elastase activity in circulating neutrophils (in words) (neutrophil elastase) | overt signs of toxicity (rat) | Total Number of Cells Lavaged at 4 Hours, Lymphocytes [2, 3] | Total Number of Cells Lavaged at 4 Hours, Macrophages Monocytes [2, 3] | Total Number of Cells Lavaged at 4 Hours, Neutrophils [2, 3] | Total Number of Cells Lavaged at 4 Hours, Total Cells [2, 3] | Abdominal Lavage Cell Distribution, Lymphocytes [2, 3] [%] | Abdominal Lavage Cell Distribution, Macrophages Monocytes [2, 3] [%] | Abdominal Lavage Cell Distribution, Neutrophils [2, 3] [%] | reduction of peritonitis induced neutrophil diapedesis ([2]; 8 mg/kg i.v. single dose) | other results
1 | CC(=O)Oc1ccccc1C(=O)OCN1C(=O)c2ccccc2S1(=O)=O [Drug A] | 10% and 17% | 90% and 83% | caused an increase in the number of neutrophils into the peripheral circulation | 0.55 ΔOD/min/ml and 0.70 ΔOD/min/ml | 0.014 and 0.015 | do not enter neutrophils in vivo | fails to inactivate neutrophil intracellular proteinase | 41.4 × 10^6 and 45.7 × 10^6 | 46.0 × 10^6 and 55.0 × 10^6 | did not reduce elastase activity in circulating neutrophils | no overt signs of toxicity | 7.0 × 10^6 | 7.6 × 10^6 | 11.0 × 10^6 | 25 × 10^6 | 28 | 38 | 44 | more than 50% | morphology of circulating cells (in words) [1]: most of the circulating cells are morphologically mature
2 | O=C1c2ccccc2S(=O)(=O)N1CF [Drug B] | 63% and 79% | 37% and 21% | did not cause an increase in neutrophil number | 0.125 ΔOD/min/ml and 0.05 ΔOD/min/ml | 0.0154 and 0.0159 | do not enter neutrophils in vivo | fails to inactivate neutrophil intracellular proteinase | 8.14 × 10^6 and 3.15 × 10^6 | 22.0 × 10^6 and 15.0 × 10^6 | did not reduce elastase activity in circulating neutrophils | no overt signs of toxicity | 8.1 × 10^6 | 7.8 × 10^6 | 10.1 × 10^6 | 26 × 10^6 | 31 | 30 | 39 | more than 50% | Total Number of Cells Lavaged at 4 Hours, Lymphocytes [2, 4]: 2.6 × 10^6; Total Number of Cells Lavaged at 4 Hours, Macrophages Monocytes [2, 4]: 14.5 × 10^6; Total Number of Cells Lavaged at 4 Hours, Neutrophils [2, 4]: 4.8 × 10^6; Total Number of Cells Lavaged at 4 Hours, Total Cells [2, 4]: 22 × 10^6; Abdominal Lavage Cell Distribution, Lymphocytes [2, 4]: 12%; Abdominal Lavage Cell Distribution, Macrophages Monocytes [2, 4]: 66%; Abdominal Lavage Cell Distribution, Neutrophils [2, 4]: 22%; Total Number of Cells Lavaged at 4 Hours, Lymphocytes [2, 5]: 9.9 × 10^6; Total Number of Cells Lavaged at 4 Hours, Macrophages Monocytes [2, 5]: 9.6 × 10^6; Total Number of Cells Lavaged at 4 Hours, Neutrophils [2, 5]: 12.5 × 10^6; Total Number of Cells Lavaged at 4 Hours, Total Cells [2, 5]: 32 × 10^6; Abdominal Lavage Cell Distribution, Lymphocytes [2, 5]: 31%; Abdominal Lavage Cell Distribution, Macrophages Monocytes [2, 5]: 30%; Abdominal Lavage Cell Distribution, Neutrophils [2, 5]: 39%
